Measured values: publication PMC3308910 (2012)

Columns and labels:
[1] = target: cytochrome bc1 complex (ubiquinol:cytochrome c oxidoreductase; respiratory complex III) (Homo sapiens, UniProt P00156); assay type: biochemical
[2] = target: T1, cytochrome bc1 complex (ubiquinol:cytochrome c oxidoreductase; respiratory complex III) (Plasmodium falciparum, UniProt Q02768); assay type: biochemical
T1 sequence (Q02768 1-376): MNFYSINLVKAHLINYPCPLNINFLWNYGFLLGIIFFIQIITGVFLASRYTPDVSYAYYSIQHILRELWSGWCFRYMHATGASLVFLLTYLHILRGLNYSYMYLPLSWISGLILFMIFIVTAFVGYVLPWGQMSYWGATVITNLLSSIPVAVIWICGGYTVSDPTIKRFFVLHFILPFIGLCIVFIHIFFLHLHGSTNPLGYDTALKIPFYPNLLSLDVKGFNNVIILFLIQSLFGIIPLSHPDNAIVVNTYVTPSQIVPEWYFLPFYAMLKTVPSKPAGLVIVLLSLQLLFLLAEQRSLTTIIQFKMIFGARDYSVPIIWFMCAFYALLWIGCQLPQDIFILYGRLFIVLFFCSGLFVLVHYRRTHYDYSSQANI

Sequence of cytochrome bc1 complex (ubiquinol:cytochrome c oxidoreductase; respiratory complex III) (Homo sapiens, UniProt P00156) (P00156 whole entry, one chain of several): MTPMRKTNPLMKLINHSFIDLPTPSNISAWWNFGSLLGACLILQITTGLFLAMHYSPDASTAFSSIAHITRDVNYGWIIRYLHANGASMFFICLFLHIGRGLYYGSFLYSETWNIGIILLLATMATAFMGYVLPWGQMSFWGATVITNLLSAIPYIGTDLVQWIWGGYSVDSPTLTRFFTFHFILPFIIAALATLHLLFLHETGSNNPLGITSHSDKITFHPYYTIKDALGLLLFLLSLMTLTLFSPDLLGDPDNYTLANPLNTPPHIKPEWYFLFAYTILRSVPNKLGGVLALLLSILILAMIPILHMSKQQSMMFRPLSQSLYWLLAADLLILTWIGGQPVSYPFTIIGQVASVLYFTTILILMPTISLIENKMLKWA

IC50 [1] [nM] | IC50 [2] [nM] | Compound
327 ± 30 | – | O=C1C(O)=C([C@H]2CC[C@H](c3ccc(Cl)cc3)CC2)C(=O)c2ccccc21 [Atovaquone]
– | 2 ± 0.5 | CCCCCCCCCCOc1cc2c(O)c(C(=O)OCC)cnc2cc1OCC [Decoquinate]
